Earlier results as cited in patent publication US20090192135A1, “Human Niemann Pick C1-Like 1 Gene (NPC1L1) Polymorphisms and Methods of Use Thereof” (SCHERING CORPORATION, priority 2005, published 2009).

Target: T1, NPC1L1 (Homo sapiens, UniProt Q9UHC9)
T1 construct: from tissue; host or cells: small intestine of hypercholesterolemic patients (in vivo, clinical trial)
T1 sequence (Q9UHC9 22-1332 isoform Q9UHC9-2 limits assumed): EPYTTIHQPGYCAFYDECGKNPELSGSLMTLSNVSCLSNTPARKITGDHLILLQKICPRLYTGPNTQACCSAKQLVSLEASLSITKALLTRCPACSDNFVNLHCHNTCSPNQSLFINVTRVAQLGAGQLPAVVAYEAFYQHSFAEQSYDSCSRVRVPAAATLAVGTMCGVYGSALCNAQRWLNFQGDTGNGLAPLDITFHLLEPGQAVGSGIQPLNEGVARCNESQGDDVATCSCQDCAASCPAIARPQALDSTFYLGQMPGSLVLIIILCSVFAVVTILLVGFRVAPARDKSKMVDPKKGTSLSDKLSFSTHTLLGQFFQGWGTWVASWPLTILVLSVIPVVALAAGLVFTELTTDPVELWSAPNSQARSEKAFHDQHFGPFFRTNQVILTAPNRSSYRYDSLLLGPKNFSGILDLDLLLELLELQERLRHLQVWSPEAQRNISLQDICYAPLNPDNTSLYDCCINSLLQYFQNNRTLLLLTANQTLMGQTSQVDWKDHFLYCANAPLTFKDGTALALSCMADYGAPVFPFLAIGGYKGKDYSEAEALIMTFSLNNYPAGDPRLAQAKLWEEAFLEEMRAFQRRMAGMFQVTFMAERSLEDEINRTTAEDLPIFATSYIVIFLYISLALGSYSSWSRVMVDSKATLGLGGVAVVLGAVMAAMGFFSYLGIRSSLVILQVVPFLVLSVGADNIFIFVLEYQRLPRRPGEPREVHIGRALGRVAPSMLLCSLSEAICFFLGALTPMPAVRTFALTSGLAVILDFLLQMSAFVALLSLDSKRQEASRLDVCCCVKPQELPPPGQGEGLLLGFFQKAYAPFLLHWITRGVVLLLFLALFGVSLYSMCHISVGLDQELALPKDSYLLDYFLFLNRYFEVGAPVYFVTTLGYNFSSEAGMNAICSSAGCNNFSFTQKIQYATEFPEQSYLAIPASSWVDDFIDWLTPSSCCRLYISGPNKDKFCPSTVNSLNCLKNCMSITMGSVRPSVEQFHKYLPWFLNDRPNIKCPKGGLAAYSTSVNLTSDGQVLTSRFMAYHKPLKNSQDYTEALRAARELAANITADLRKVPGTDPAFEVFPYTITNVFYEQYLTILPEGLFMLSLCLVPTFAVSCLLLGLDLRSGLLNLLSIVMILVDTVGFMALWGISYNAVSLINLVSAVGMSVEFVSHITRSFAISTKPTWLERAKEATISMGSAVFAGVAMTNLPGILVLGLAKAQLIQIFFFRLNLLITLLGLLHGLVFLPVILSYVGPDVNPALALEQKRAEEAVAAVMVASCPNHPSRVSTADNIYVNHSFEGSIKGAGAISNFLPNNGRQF
Conditions: cited from earlier work

With `O=C1[C@H](CC[C@H](O)c2ccc(F)cc2)[C@@H](c2ccc(O)cc2)N1c1ccc(F)cc1` [ezetimibe, 1-(4-fluorophenyl)-3(R)-[3-(4-fluorophenyl)-3(S)-hydroxypropyl]-4(S)-(4-hydroxyphenyl)-2-azetidinone] as the compound, how does the “additional LDL-C reduction compared with addition of placebo” value (added to ongoing statin therapy, stable dose of statins, EASE) read?
Its value is about 23%.

What about the “reduction in LDL-C” value (ezetimibe group of EASE trial (placebo 2.7%, p<0.001)) of the same compound?
Its value is 25.8%.
